Data reported in patent US20190374533A1, “COMPOUNDS AND METHODS FOR INHIBITING NHE-MEDIATED ANTIPORT IN THE TREATMENT OF DISORDERS ASSOCIATED WITH FLUID RETENTION OR SALT OVERLOAD AND GASTROINTESTINAL TRACT DISORDERS” (Ardelyx, Inc., priority 2008, published 2019).
Where a name gives a salt, the structure may show the parent alone. Read-outs that look alike come from different tables or passages of the source.

Legend:
NHE-1 [1] = target: NHE-1 (Homo sapiens, UniProt P19634); assay: Inhibition of NHE-1, literature data (Table 1), species not marked; assay type: cell-based; settings: selectivity NHE-1 over NHE-3, from Table 1
Text: Shown below are examples of various NHE inhibiting small molecules and their selectivity across the NHE-1, -2 and -3 isoforms. (See, e.g., B. Masereel et al., An Overview of Inhibitors of Na+/H+ Exchanger, European J. of Med. Chem., 38, pp. 547-554 (2003), the entire contents of which is incorporated by reference here for all relevant and consistent purposes). […] It is thus possible to engineer NHE-3 selectivity into a chemical series optim/zed for potency against another antiporter isoform; that is, the inhibitor classes exemplified in the art may be suitably modified for activity and selectivity against NHE-3 (or alternatively NHE-2 and/or NHE-8), as well as being modified to be rendered substantially impermeable or substantially systemically non-bioavailable.

[2] = tested on: acute stress-induced visceral hypersensitivity; assay: Effect on acute stress-induced visceral hypersensitivity (colorectal distension); assay type: in vivo, rat; settings: female Wistar rats, partial restraint stress, 10 mg/kg oral, at 45 and 60 mm Hg, p<0.05 (FIG. 6)
Experimental: Female Wistar rats weighing 220-250 g were prepared for electromyography. The animals were anaesthetized, and three pairs of nichrome wire electrodes were implanted bilaterally in the striated muscles at 3 cm laterally from the midline. The free ends of electrodes were exteriorised on the back of the neck and protected by a glass tube attached to the skin. Electromyographic recordings (EMG) were begun 5 days after surgery. The electrical activity of the abdominal striated muscles were recorded with an electromyograph machine (Mini VIII; Alvar, Paris, France) using a short time constant (0.03 sec.) to remove low-frequency signals (<3 Hz).
Partial restraint stress (PRS), a relatively mild stress, was performed as follows. Briefly, animals were lightly anaesthetized with ethyl-ether, and their […], upper forelimbs and thoracic trunk were wrapped in a confining harness of paper tape to restrict, but not prevent their body movements and placed in their home cage for 2 hours. Control sham-stress animals were anaesthetized but not wrapped. […]
Colorectal distension (CRD) was accomplished as follows: rats were placed in a plastic tunnel, where they were not allowed to move or escape daily during 3 consecutive days (3 h/day) before any CRD. […] For each parameter studied (the number of abdominal contractions for each 5-min period during rectal distension) data is expressed as mean±SEM. […]

fecal water content = assay: Pharmacodynamic model: effect of test compounds on fecal water content; assay type: in vivo, rat; settings: female Sprague Dawley rats, 3 mg/kg oral, feces collected 16 hrs; for % Fecal water: mean of 6
Experimental: Normal female Sprague Dawlev rats (Charles-River laboratories international, Hollister, Calif.), 7-8 weeks old with body weight 175-200 g were acclimated for at least 3 days before proceeding to experiments. The animals were provided food (Harlan Teklad 2018c) and water ad lib, through the experiment. Animals were randomly grouped with 6 rats per group.
The experiments were initiated by orally dosing test compounds at 3 mg/kg in volume of 10 ml/kg. Rats from control group were gavaged with the same volume of vehicle (water). After dosing, rats were placed in metabolic cages for 16 hrs (overnight). Food and water consumption were monitored. After sixteen hours, feces and urine were collected. The percent of fecal water was measured by weighing fecal samples before and after drying.
Representative data of % fecal water content are shown in Table 12 (data are expressed as means, with 6 animals per data point). The differences between control and treated groups were evaluated by one way ANOVA with Dunnett post tests. Results are significant if p<0.05.

[3] = tested on: fecal water content, urinary sodium, fecal form; assay: Pharmacodynamic model: addition of a fluid absorbing polymer (1% Psyllium) to chow; assay type: in vivo, rat; settings: rats, chow with 1% Psyllium (FIGS. 5A-5C)
Text: Rats were monitored for fecal water content as in Example 13, with the addition of a second group that were fed chow with the addition of 1% Psyllium to their diet. In addition to fecal water and urinary sodium, fecal form was monitored on a scale of 1-5, where 1 is a normal pellet, 3 indicates soft and unformed pellets, and 5 indicates watery feces.

NHE-1 [4] = target: NHE-1 (Rattus norvegicus, UniProt P26431); settings: * = from rat; read-out: IC50 or Ki, NHE-1; cited from earlier work
NHE-3 = NHE-3 (Rattus norvegicus, UniProt P26433); settings: cited from earlier work
urinary sodium levels = assay: Pharmacodynamic model: effect of test compounds on urinary sodium levels; assay type: in vivo, rat; settings: rats, several oral dose levels, corrected for sodium intake (FIGS. 3A and 3B)
Experimental: It is anticipated that the reduction of absorption of sodium from the intestine will be reflected in reduced levels of sodium in the urine. To test this, the protocols in Example 13 were repeated, but urine was collected in addition to feces. Urine sodium levels were analyzed by ion chromatography (IC), and the amound of sodium excreted in the urine was corrected for variations in sodium intake by measuring food consumption.

rat NHE-3 = target: T1, rat NHE-3 (Rattus norvegicus, UniProt P26433); assay: Cell-based assay of NHE-3 activity (Pharmacological Test Example 1); settings: OK cells expressing rat NHE-3; 0-30 uM test compound, 5 uM EIPA; read-out: rat NHE-3 Average pIC50 (converted)
T1 construct: expressed in transfected cells; host or cells: Opossum kidney (OK) cells (ATCC), electroporated
In short: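 Na+-dependent H+ exchange tracked with the pH-sensitive dye BCECF in opossum kidney cells transiently expressing rat NHE-3. Intracellular acidification by NH4Cl prepulse, then 10 min in ammonium- and Na+-free HEPES, pH 7.4, room temperature. Initial rates averaged over 3-6 replicates give pIC50.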

NHE-2 = target: T2, NHE-2 (Rattus norvegicus, UniProt P48763); settings: * = from rat; read-out: IC50 or Ki, NHE-2; cited from earlier work
T2 sequence (P48763 1-813): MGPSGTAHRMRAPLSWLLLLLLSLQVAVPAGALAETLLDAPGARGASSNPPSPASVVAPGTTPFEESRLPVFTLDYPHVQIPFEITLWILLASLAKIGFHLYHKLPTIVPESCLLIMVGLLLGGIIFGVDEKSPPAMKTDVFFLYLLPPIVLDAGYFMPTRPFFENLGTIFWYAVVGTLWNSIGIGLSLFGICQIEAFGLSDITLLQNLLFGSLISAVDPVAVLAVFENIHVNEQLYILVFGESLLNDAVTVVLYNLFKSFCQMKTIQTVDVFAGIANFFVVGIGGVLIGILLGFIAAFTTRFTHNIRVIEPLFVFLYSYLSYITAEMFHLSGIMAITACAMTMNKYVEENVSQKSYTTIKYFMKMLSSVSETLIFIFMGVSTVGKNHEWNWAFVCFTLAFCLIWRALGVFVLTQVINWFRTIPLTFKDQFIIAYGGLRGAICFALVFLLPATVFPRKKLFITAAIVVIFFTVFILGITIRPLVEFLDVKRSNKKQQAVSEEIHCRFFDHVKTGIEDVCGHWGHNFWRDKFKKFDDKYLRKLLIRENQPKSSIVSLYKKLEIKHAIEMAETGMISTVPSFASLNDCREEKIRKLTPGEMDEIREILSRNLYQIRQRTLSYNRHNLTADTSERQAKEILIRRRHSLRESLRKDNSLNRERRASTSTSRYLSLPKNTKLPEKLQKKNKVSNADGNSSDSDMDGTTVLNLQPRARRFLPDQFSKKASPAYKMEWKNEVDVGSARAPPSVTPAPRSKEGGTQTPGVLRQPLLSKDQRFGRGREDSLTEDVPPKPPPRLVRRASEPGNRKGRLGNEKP

[5] = Determination of compound Cmax and AUC; assay type: in vivo; settings: rat; Sprague-Dawley rats, oral gavage, serum 0.5-4 h; actual oral dose (mg/kg) given
In short: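 Sprague-Dawley rats dosed orally by gavage at 2.5 mg/kg; serum sampled at 0.5, 1, 2 and 4 h. Acetonitrile protein precipitation, then LC/MS/MS quantitation against a standard curve.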

Chain of NHE-1 (Homo sapiens, UniProt P19634) (P19634 whole entry, species assumed, canonical isoform): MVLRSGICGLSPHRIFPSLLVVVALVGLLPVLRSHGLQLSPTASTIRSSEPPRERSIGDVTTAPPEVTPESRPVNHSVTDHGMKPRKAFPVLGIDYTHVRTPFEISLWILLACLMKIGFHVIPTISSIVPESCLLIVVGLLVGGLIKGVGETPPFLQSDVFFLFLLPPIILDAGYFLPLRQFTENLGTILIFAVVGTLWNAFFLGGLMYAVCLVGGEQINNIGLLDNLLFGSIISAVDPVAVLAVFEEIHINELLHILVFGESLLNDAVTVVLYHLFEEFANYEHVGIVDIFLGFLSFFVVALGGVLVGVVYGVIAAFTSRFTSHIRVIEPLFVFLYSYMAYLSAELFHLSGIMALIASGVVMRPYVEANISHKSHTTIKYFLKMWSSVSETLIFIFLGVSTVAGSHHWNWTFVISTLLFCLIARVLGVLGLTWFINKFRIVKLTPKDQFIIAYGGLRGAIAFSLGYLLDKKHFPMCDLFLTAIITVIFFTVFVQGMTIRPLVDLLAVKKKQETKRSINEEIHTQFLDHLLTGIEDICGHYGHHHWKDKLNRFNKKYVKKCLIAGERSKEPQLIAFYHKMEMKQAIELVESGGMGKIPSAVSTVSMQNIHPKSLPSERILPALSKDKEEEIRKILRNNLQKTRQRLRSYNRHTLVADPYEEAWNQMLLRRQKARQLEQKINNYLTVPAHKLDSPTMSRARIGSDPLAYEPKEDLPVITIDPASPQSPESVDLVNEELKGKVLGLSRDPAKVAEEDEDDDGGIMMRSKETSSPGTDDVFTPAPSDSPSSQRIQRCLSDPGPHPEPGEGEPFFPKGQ
T1 sequence (P26433 29-831): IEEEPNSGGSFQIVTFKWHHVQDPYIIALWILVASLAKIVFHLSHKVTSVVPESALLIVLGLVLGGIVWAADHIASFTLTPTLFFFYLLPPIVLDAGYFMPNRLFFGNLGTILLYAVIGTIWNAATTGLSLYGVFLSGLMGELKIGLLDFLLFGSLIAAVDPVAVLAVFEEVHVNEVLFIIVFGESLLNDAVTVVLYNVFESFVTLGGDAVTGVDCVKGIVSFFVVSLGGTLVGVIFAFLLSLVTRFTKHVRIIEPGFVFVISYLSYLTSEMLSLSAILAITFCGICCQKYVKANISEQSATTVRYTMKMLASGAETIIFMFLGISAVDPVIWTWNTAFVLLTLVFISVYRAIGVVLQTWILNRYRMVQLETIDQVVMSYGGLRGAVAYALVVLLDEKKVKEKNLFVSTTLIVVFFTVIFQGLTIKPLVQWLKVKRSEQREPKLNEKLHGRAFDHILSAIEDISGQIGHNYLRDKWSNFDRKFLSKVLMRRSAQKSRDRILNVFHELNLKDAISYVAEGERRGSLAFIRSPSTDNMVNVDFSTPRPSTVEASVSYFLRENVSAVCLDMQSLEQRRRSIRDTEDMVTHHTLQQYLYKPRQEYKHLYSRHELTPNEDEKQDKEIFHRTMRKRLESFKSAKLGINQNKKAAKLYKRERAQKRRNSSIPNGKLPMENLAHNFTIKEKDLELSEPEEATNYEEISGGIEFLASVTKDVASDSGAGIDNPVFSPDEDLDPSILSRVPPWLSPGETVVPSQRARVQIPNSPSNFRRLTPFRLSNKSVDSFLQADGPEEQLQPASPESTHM
Chain of NHE-3 (P26433 29-831): as above
Chain of NHE-1 (Rattus norvegicus, UniProt P26431) (P26431 whole entry): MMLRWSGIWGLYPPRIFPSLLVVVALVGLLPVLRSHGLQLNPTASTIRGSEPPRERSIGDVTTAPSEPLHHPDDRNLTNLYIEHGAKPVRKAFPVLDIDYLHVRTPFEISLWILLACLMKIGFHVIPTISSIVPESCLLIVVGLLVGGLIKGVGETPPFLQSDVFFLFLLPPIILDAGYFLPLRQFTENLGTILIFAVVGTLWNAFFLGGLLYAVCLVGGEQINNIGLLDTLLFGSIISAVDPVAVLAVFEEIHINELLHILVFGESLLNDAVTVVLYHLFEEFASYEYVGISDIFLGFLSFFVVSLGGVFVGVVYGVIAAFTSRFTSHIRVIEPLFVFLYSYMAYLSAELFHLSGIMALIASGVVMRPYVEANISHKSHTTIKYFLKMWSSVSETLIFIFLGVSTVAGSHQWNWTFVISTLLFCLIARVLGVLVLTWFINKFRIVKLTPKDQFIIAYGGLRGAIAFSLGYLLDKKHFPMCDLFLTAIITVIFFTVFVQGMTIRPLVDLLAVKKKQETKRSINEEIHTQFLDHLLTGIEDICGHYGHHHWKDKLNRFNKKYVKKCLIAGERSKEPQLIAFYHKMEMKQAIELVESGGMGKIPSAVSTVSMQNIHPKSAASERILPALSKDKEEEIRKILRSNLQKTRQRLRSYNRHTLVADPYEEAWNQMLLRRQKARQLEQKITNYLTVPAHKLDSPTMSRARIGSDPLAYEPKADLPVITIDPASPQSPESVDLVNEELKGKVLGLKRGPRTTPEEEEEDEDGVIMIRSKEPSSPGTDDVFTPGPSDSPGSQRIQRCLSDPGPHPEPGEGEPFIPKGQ

## C/C(=C\c1cccc(/C=C(\C)C(=O)NC(=N)N)c1)C(=O)N=C(N)N [Example S-2120, S-2120]
NHE-1 [1]
  fold more active against NHE-1 than NHE-3: over 500 fold

## CN1Cc2c(Cl)cc(Cl)cc2C(c2cccc(S(=O)(=O)NCCOCCOCCOCCNC(=O)C(O)C(O)C(=O)NCCOCCOCCOCCNS(=O)(=O)c3cccc(C4CN(C)Cc5c(Cl)cc(Cl)cc54)c3)c2)C1 (single isomer, unassigned) [Example 224, N1,N4-bis(2-(2-(2-(2-(3-((S or R)-6,8-dichloro-2-methyl-1,2,3,4-tetrahydroisoquinolin-4-yl)phenylsulfonamido)ethoxy)ethoxy)ethoxy)ethyl)-2,3-dihydroxysuccinamide]
[2]
  visceral hypersensitivity to distension (abdominal contractions): reduces visceral hypersensitivity to distension
Fecal water content
  % Fecal water (% of control): 125% of control
  % Fecal water: 65%
[3]
  ability to increase fecal water content or decrease urinary sodium with Psyllium in the diet: without impacting the ability

## N=C(N)NC(=O)c1nc(Cl)c(N)nc1N [Amiloride, amiloride]
NHE-1 [4]
  IC50: 1000 to 1600 nM
NHE-3; * = from rat, read-out: IC50 or Ki, NHE-3
  IC50: > 100 µM
NHE-3; as restated in the text on Table 1, read-out: NHE-3 IC50
  IC50: > 100 µM

## CN1Cc2c(Cl)cc(Cl)cc2[C@H](c2ccc(S(=O)(=O)NCCOCCOCCNC(=O)COCC(=O)NCCOCCOCCNS(=O)(=O)c3ccc([C@@H]4CN(C)Cc5c(Cl)cc(Cl)cc54)cc3)cc2)C1 (single isomer, unassigned) [Example 201, 2,2′-oxybis(N-(2-(2-(2-(4-((S or R)-6,8-dichloro-2-methyl-1,2,3,4-tetrahydroisoquinolin-4-yl)phenylsulfonamido)ethoxy)ethoxy)ethyl)acetamide) bis-hydrochloride salt]
Urinary sodium levels
  amount of sodium excreted in the urine: diminishes significantly and dose dependently
Rat NHE-3
  IC50: < 100 nM
Fecal water content
  % Fecal water (% of control): 127% of control
  % Fecal water: 63%

## CCN(c1nc(N)c(C(=O)NC(=N)N)nc1Cl)C(C)C [EIPA, ethyl isopropyl amiloride]
NHE-2
  IC50: 80 nM

## CN1Cc2c(Cl)cc(Cl)cc2[C@H](c2cccc(S(=O)(=O)NCCOCCOCCOCCNC(=O)NCCCCNC(=O)NCCOCCOCCOCCNS(=O)(=O)c3cccc([C@@H]4CN(C)Cc5c(Cl)cc(Cl)cc54)c3)c2)C1 (single isomer, unassigned) [Example 244, (S or R)—N,N′-(13,20-dioxo-3,6,9,24,27,30-hexaoxa-12,14,19,21-tetraazadotriacontane-1,32-diyl)bis(3-((S or R)-6,8-dichloro-2-methyl-1,2,3,4-tetrahydroisoquinolin-4-yl)benzenesulfonamide)]
Urinary sodium levels
  amount of sodium excreted in the urine: diminishes significantly and dose dependently
Rat NHE-3
  IC50: < 100 nM
Fecal water content
  % Fecal water (% of control): 118% of control
  % Fecal water: 61%
[5]
  AUC: < 15 ng·h/mL
  Cmax: < 7 ng/mL

## C/C(=C\c1cc(C)ccc1/C=C(\C)C(=O)NC(=N)N)C(=O)N=C(N)N [Example S-3226, S-3226]
NHE-1 [1]
  fold more active against NHE-1 than NHE-3: reversed
